# Measured values taken from ChEMBL document CHEMBL5236572, “Bioactive Aurones, Indanones, and Other Hemiindigoid Scaffolds: Medicinal Chemistry and Photopharmacology Perspectives” (J Med Chem, 2022).
# Tests used:
# PMNL = assay: Anti-inflammatory activity in human polymorphonuclear neutrophils assessed as reduction in cell movement incubated for 24 hrs by fluorescence analysis; type: functional, cell-based
# THP-1 [1] = assay: Antiinflammatory activity against human THP-1 cells assessed as inhibition of LPS-stimulated TNF-alpha production at 40 uM incubated for 1 hrs followed by LPS stimulation for 4 hrs by ELISA; type: functional; details: time 5 hrs
# THP-1 [2] = assay: Antiinflammatory activity against human THP-1 cells assessed as inhibition of LPS-stimulated iNOS expression at 50 uM incubated for 1 hrs followed by LPS stimulation for 4 hrs by ELISA; type: functional; details: time 5 hrs
# [3] = target: Amyloid-beta precursor protein (Homo sapiens, UniProt P05067); assay: Binding affinity to human brain amyloid-beta fibril
# Sequence of Amyloid-beta precursor protein (P05067 whole entry): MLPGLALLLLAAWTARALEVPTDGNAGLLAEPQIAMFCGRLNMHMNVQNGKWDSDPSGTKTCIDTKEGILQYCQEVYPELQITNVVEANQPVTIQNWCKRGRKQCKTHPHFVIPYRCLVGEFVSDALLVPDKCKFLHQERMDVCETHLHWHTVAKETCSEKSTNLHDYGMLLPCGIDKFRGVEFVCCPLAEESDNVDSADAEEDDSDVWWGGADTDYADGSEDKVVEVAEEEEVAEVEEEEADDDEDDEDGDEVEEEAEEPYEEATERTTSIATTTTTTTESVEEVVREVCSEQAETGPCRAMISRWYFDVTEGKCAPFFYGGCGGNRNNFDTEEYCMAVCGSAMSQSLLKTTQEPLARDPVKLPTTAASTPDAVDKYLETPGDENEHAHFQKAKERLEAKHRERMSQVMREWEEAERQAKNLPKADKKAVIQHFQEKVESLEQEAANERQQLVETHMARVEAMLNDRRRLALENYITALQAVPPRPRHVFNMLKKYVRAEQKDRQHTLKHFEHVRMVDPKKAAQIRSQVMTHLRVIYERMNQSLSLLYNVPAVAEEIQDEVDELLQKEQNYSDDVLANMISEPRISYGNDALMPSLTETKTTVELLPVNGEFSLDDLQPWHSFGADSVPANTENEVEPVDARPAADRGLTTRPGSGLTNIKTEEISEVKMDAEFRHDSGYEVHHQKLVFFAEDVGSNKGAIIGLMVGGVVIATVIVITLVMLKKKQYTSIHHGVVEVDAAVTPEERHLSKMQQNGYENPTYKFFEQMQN
# RAW264.7 = assay: cells; details: Mus musculus
# [4] = test system: Geobacillus stearothermophilus; assay: Antibacterial activity against Geobacillus stearothermophilus NCIB 8222 assessed as zone of inhibition incubated for 24 hrs by agar well diffusion method; type: functional
# Bacillus anthracis = assay: Antibacterial activity against clinical isolate Bacillus anthracis assessed as zone of inhibition incubated for 24 hrs by agar well diffusion method; type: functional
# Bacillus subtilis = assay: Antibacterial activity against Bacillus subtilis NCIB 3610 assessed as zone of inhibition incubated for 24 hrs by agar well diffusion method; type: functional
# Bacillus cereus = assay: Antibacterial activity against Bacillus cereus NCIB 6349 assessed as zone of inhibition incubated for 24 hrs by agar well diffusion method; type: functional
# Staphylococcus aureus = assay: Antibacterial activity against Staphylococcus aureus NCIB 8588 assessed as zone of inhibition incubated for 24 hrs by agar well diffusion method; type: functional
# Escherichia coli = assay: Antibacterial activity against Escherichia coli NCIB 86 assessed as zone of inhibition incubated for 24 hrs by agar well diffusion method; type: functional
# Pseudomonas fluorescens = assay: Antibacterial activity against Pseudomonas fluorescens NCIB 3756 assessed as zone of inhibition incubated for 24 hrs by agar well diffusion method; type: functional
# Klebsiella pneumoniae = assay: Antibacterial activity against Klebsiella pneumoniae NCIB 418 assessed as zone of inhibition incubated for 24 hrs by agar well diffusion method; type: functional
# Shigella dysenteriae = assay: Antibacterial activity against Shigella dysenteriae clinical isolate assessed as zone of inhibition incubated for 24 hrs by agar well diffusion method; type: functional
# Candida albicans = assay: […] activity against Candida albicans clinical isolate assessed as zone of inhibition incubated for 24 hrs by agar well diffusion method; type: functional
# Pseudomonas aeruginosa = assay: Antibacterial activity against Pseudomonas aeruginosa NCIB 950 assessed as zone of inhibition incubated for 24 hrs by agar well diffusion method; type: functional
# NB-4 = assay: Cytotoxicity against human NB-4 cells assessed as reduction in cell viability by MTT assay; type: functional, cell-based
# SH-SY5Y = assay: Cytotoxicity against human SH-SY5Y cells assessed as reduction in cell viability by MTT assay; type: functional, cell-based
# [5] = test system: Human immunodeficiency virus 1; assay: Antiviral activity against HIV-1 infected in human C8166 cells assessed as reduction in virus-induced cytopathic effect by MTT assay; type: functional, organism-based; details: Human immunodeficiency virus 1, C8166
# [6] = Cytotoxicity against human C8166 cells assessed as reduction in cell viability by MTT assay; type: toxicity, cell-based
# [7] = Selectivity index, ratio of CC50 for cytotoxicity against human C8166 cells to EC50 for antiviral activity against HIV-1 infected in human C8166 cells; type: toxicity, cell-based; details: read-out: Ratio CC50/EC50
# [8] = target: Peroxisome proliferator-activated receptor gamma (Homo sapiens, UniProt P37231); assay: Binding affinity to PPARgamma (unknown origin) by competitive binding assay
# Sequence of Peroxisome proliferator-activated receptor gamma (P37231 whole entry): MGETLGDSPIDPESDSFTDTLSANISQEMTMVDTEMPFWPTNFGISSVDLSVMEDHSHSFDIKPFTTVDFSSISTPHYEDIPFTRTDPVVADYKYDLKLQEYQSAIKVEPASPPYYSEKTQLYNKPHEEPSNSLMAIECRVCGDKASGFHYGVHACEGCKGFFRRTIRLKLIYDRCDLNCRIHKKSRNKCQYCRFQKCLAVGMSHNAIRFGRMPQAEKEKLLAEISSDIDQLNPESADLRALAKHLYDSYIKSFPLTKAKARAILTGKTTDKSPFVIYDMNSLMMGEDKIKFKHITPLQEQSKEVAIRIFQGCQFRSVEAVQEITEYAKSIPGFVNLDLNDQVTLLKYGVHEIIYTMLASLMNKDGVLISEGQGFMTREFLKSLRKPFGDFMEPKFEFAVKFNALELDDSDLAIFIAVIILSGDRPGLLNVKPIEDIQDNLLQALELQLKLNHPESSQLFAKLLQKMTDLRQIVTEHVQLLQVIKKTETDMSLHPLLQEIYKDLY
smiles,measurement,setting,value
CCOC(OCC)c1ccc(/C=C2\Cc3ccccc3C2=O)cc1,IC50,PMNL,7 µM
O=C1/C(=C/c2ccc(CO)o2)Oc2ccccc21,inhibition at 40 µM,THP-1 [1],50%
same,inhibition at 50 µM,THP-1 [2],30%
O=C1/C(=C/c2ccc(-c3ccc(CO)cc3)s2)Cc2ccccc21,Kd,[3],0.39 µM
same,IC50,RAW264.7,4 µM
COc1ccc2c(c1)O/C(=C\c1cn(-c3ccccc3)nc1-c1cccs1)C2=O,inhibition zone (IZ),[4],13 mm
same,inhibition zone (IZ),Bacillus anthracis,13 mm
same,inhibition zone (IZ),Bacillus subtilis,13 mm
same,inhibition zone (IZ),Bacillus cereus,13 mm
same,inhibition zone (IZ),Staphylococcus aureus,13 mm
same,inhibition zone (IZ),Escherichia coli,13 mm
same,inhibition zone (IZ),Pseudomonas fluorescens,13 mm
same,inhibition zone (IZ),Klebsiella pneumoniae,13 mm
same,inhibition zone (IZ),Shigella dysenteriae,13 mm
same,inhibition zone (IZ),Candida albicans,13 mm
same,inhibition zone (IZ),Pseudomonas aeruginosa,13 mm
COc1cc2c(cc1O)C(=O)/C(=C/c1ccc(C(C)=O)cc1)O2,IC50,NB-4,3.4 µM
same,IC50,SH-SY5Y,3.5 µM
same,IC50,[5],2.4 µM
same,CC50,[6],> 200 µM
same,selectivity ratio,[7],82
COc1cc2c(cc1OC)C(=O)/C(=C/c1ccccc1OCCc1cccs1)C2,IC50,[8],0.62 µM
